# Experimental data reported in patent US7628979B1, “Use of calco oil blue V in bait formulations for marking and controlling subterranean termites” (The United States of America as represented by the …, priority 2005, dated 2009).
# How the values were obtained:
# [1] = test system: Formosan subterranean termites; assay: In-field marking and control, bait at infested trees, sites 1 and 2; assay type: in vivo; details: 250 ppm bait
# Description: (§1) Formosan subterranean termite and native subterranean termite infested trees (Water Oaks and Legastrums) in New Orleans, La. were chosen for this study. Three sites were selected located at the Southern Regional Research Center campus. Site 1 was located near the service building next to an old water oak tree, site 2 was located in the compound area near ligastrum trees, and site 3 near ligastrum trees outside the compound area. Sites 1 and 2 were active with Formosan subterranean termites and site 3 with Eastern subterranean termites.
# (§2) The colored bait matrix at 250 ppm was encapsulated as described above and placed directly in the base of the trees where termites were foraging, making sure that the encapsulated colored bait matrix was covered with soil or with a piece of wood or brick on top of it to prevent desiccation. The bait was periodically inspected for consumption and termite activity. The field study started in early August and was completed by the end of the following June. During winter (December-February) termite activity decreased considerably, but by April termite activity and foraging resumed and the blue colored matrix was replaced by bait formulation containing 250 ppm of chitin synthesis inhibitors to kill the colonies. Diflubenzuron was used in 2 of the sites and chlorfluazuron was used in the remaining site.
# [2] = test system: Eastern subterranean termites; assay: In-field marking and control, bait at infested trees, site 3; assay type: in vivo; details: Site 3 (Ligastrum), 250 ppm bait
# Description: as §1, §2
compound,measurement,setting,value
"O=C(NC(=O)c1c(F)cccc1F)Nc1cc(Cl)c(Oc2ncc(C(F)(F)F)cc2Cl)c(Cl)c1 [Chlorfluazuron, 1-[3,5-dichloro-4-(3-chloro-5-trifluoromethyl-2-pyridyloxy)phenyl]-3-(2,6-difluorobenzoyl)urea, reference compound]",Bait consumption,"[1]; Site 2 (Ligastrum), day 7",0 g
same,Bait consumption,"[1]; Site 2 (Ligastrum), day 14",0 g
same,Bait consumption,"[1]; Site 2 (Ligastrum), day 21",0 g
same,Bait consumption,"[1]; Site 2 (Ligastrum), day 27",0 g
same,Bait consumption,"[1]; Site 2 (Ligastrum), day 46",0 g
same,Bait consumption,"[1]; Site 2 (Ligastrum), day 56",0 g
same,Bait consumption,"[1]; Site 2 (Ligastrum), day 73",0 g
same,Bait consumption,"[1]; Site 2 (Ligastrum), day 83",0 g
same,Bait consumption,"[1]; Site 2 (Ligastrum), day 102",0 g
same,Bait consumption,"[1]; Site 2 (Ligastrum), day 159",0 g
same,Bait consumption,"[1]; Site 2 (Ligastrum), day 221",0 g
same,Bait consumption,"[1]; Site 2 (Ligastrum), day 251",450 g
same,Bait consumption,"[1]; Site 2 (Ligastrum), day 281",750 g
"O=C(NC(=O)c1c(F)cccc1F)Nc1ccc(Cl)cc1 [Diflubenzuron, 1-(4-chlorophenyl)-3-(2,6-difluorobenzoyl)urea, reference compound]",Bait consumption,"[1]; Site 1 (Water Oak), day 7",0 g
same,Bait consumption,"[1]; Site 1 (Water Oak), day 14",0 g
same,Bait consumption,"[1]; Site 1 (Water Oak), day 21",0 g
same,Bait consumption,"[1]; Site 1 (Water Oak), day 27",0 g
same,Bait consumption,"[1]; Site 1 (Water Oak), day 46",0 g
same,Bait consumption,"[1]; Site 1 (Water Oak), day 56",0 g
same,Bait consumption,"[1]; Site 1 (Water Oak), day 73",0 g
same,Bait consumption,"[1]; Site 1 (Water Oak), day 83",0 g
same,Bait consumption,"[1]; Site 1 (Water Oak), day 102",0 g
same,Bait consumption,"[1]; Site 1 (Water Oak), day 159",0 g
same,Bait consumption,"[1]; Site 1 (Water Oak), day 221",0 g
same,Bait consumption,"[1]; Site 1 (Water Oak), day 251",150 g
same,Bait consumption,"[1]; Site 1 (Water Oak), day 281",300 g
same,Bait consumption,[2]; day 7,0 g
same,Bait consumption,[2]; day 14,0 g
same,Bait consumption,[2]; day 21,0 g
same,Bait consumption,[2]; day 27,0 g
same,Bait consumption,[2]; day 46,0 g
same,Bait consumption,[2]; day 56,0 g
same,Bait consumption,[2]; day 73,0 g
same,Bait consumption,[2]; day 83,0 g
same,Bait consumption,[2]; day 102,0 g
same,Bait consumption,[2]; day 159,0 g
same,Bait consumption,[2]; day 221,0 g
same,Bait consumption,[2]; day 251,150 g
same,Bait consumption,[2]; day 281,300 g
